Values quoted from earlier work, collected in patent US20250144122A1, “Scent-Changing Ointment & Method of Making The Same” (priority 2023, published 2025).

Columns and labels:
[1] = in vivo
[2] = topical application, 3.5% gel

| SMILES | analgesic effect (pain threshold) [1] | blood flow remains reduced ([2]; at 10 minutes after application) [%] | reduces blood flow ([2]; within 60 seconds of application) [%] |
| --- | --- | --- | --- |
| CC(C)[C@@H]1CC[C@@H](C)C[C@H]1O [(l)-menthol] | able to increase pain threshold |  |  |
| CC1CCC(C(C)C)C(O)C1 (stereo not shown) [menthol, Menthol] |  | 20 | 35 |
| CC1CC[C@H](C(C)C)[C@@H](O)C1 (stereo partly shown) [(d)-menthol] | completely devoid of any analgesic effect |  |  |
